{"source": "ChEMBL document CHEMBL4118066", "about": "“QSAR-driven design, synthesis and discovery of potent chalcone derivatives with antitubercular activity” (Eur J Med Chem, 2017)", "key": {"Candida albicans": {"tested_on": "Candida albicans", "assay": "Antifungal activity against Candida albicans ATCC 90028 after 36 to 48 hrs", "type": "functional"}, "in vitro": {"assay": "in vitro", "details": "monkey, Vero cells", "description": "Selectivity index, ratio of IC50 for African green monkey Vero cells to MIC90 for Mycobacterium tuberculosis H37Rv ATCC 27294 under normoxic condition"}, "[1]": {"tested_on": "Mycolicibacterium smegmatis", "assay": "Antimycobacterial activity against Mycobacterium smegmatis ATCC MC2155 after 7 days under normoxic condition by microplate Alamar blue assay", "type": "functional", "details": "str. MC2 155, 168 h"}, "Mycobacterium avium": {"tested_on": "Mycobacterium avium", "assay": "Antimycobacterial activity against Mycobacterium avium ATCC 15769 after 7 days under normoxic condition by microplate Alamar blue assay", "type": "functional", "details": "ATCC 15769, 168 h"}, "[2]": {"tested_on": "Mycobacterium tuberculosis", "assay": "Antitubercular activity against Mycobacterium tuberculosis H37Rv ATCC 27294 treated for 10 days under hypoxic condition followed by 28 hrs of normoxic recovery", "type": "functional"}, "Escherichia coli": {"tested_on": "Escherichia coli", "assay": "Antibacterial activity against Escherichia coli ATCC 25922 after 16 to 20 hrs", "type": "functional"}, "[3]": {"tested_on": "Mycobacterium tuberculosis", "assay": "microbe, parasite or virus in culture", "type": "functional", "details": "H37Rv ATCC 27294, 168 h", "description": "Antitubercular activity against Mycobacterium tuberculosis H37Rv ATCC 27294 after 7 days under normoxic condition by microplate Alamar blue assay"}, "[4]": {"tested_on": "Mycobacteroides abscessus", "assay": "Antimycobacterial activity against Mycobacterium abscessus ATCC 19977 after 7 days under normoxic condition by microplate Alamar blue assay", "type": "functional", "details": "ATCC 19977, 168 h"}, "Staphylococcus aureus": {"tested_on": "Staphylococcus aureus", "assay": "Antibacterial activity against Staphylococcus aureus ATCC 29213 after 16 to 20 hrs", "type": "functional"}, "Mycobacterium marinum": {"tested_on": "Mycobacterium marinum", "assay": "Antimycobacterial activity against Mycobacterium marinum ATCC 927 after 7 days under normoxic condition by microplate Alamar blue assay", "type": "functional", "details": "ATCC 927, 168 h"}, "Mycobacteroides chelonae": {"tested_on": "Mycobacteroides chelonae", "assay": "Antimycobacterial activity against Mycobacterium chelonae ATCC 35752 after 7 days under normoxic condition by microplate Alamar blue assay", "type": "functional", "details": "ATCC 35752, 168 h"}, "Mycobacterium kansasii": {"tested_on": "Mycobacterium kansasii", "assay": "Antimycobacterial activity against Mycobacterium kansasii ATCC 12478 after 7 days under normoxic condition by microplate Alamar blue assay", "type": "functional", "details": "ATCC 12478, 168 h"}}, "data": [{"molecule": "O=C(/C=C/c1ccc([N+](=O)[O-])o1)c1cccc(Br)c1", "values": [{"measurement": "MIC90", "setting": "Candida albicans", "value": "> 10", "unit": "µM"}, {"measurement": "selectivity ratio", "setting": "in vitro", "value": 52}, {"measurement": "MIC90", "setting": "[1]", "value": 4.84, "unit": "µM"}, {"measurement": "MIC90", "setting": "Mycobacterium avium", "value": 2.95, "unit": "µM"}, {"measurement": "MIC90", "setting": "[2]", "value": 5.65, "unit": "µM"}, {"measurement": "MIC90", "setting": "Escherichia coli", "value": "> 10", "unit": "µM"}, {"measurement": "MIC90", "setting": "[3]", "value": 1.32, "unit": "µM"}, {"measurement": "MIC90", "setting": "[4]", "value": "> 10", "unit": "µM"}, {"measurement": "MIC90", "setting": "Staphylococcus aureus", "value": 1.68, "unit": "µM"}, {"measurement": "MIC90", "setting": "Mycobacterium marinum", "value": "> 10", "unit": "µM"}, {"measurement": "MIC90", "setting": "Mycobacteroides chelonae", "value": "> 10", "unit": "µM"}, {"measurement": "MIC90", "setting": "Mycobacterium kansasii", "value": 1.65, "unit": "µM"}]}, {"molecule": "O=C(/C=C/c1ccc([N+](=O)[O-])o1)c1ccc(-c2ccccc2)cc1", "values": [{"measurement": "MIC90", "setting": "Candida albicans", "value": "> 10", "unit": "µM"}, {"measurement": "selectivity ratio", "setting": "in vitro", "value": 25}, {"measurement": "MIC90", "setting": "[1]", "value": "> 10", "unit": "µM"}, {"measurement": "MIC90", "setting": "Mycobacterium avium", "value": 1.27, "unit": "µM"}, {"measurement": "MIC90", "setting": "[2]", "value": 3.18, "unit": "µM"}, {"measurement": "MIC90", "setting": "Escherichia coli", "value": "> 10", "unit": "µM"}, {"measurement": "MIC90", "setting": "[3]", "value": 3.91, "unit": "µM"}, {"measurement": "MIC90", "setting": "[4]", "value": "> 10", "unit": "µM"}, {"measurement": "MIC90", "setting": "Staphylococcus aureus", "value": "> 10", "unit": "µM"}, {"measurement": "MIC90", "setting": "Mycobacterium marinum", "value": "> 10", "unit": "µM"}, {"measurement": "MIC90", "setting": "Mycobacteroides chelonae", "value": "> 10", "unit": "µM"}, {"measurement": "MIC90", "setting": "Mycobacterium kansasii", "value": 0.49, "unit": "µM"}]}, {"molecule": "COc1ccc(/C=C/C(=O)c2cccc(Br)c2)cc1", "values": [{"measurement": "MIC90", "setting": "Candida albicans", "value": "> 10", "unit": "µM"}, {"measurement": "selectivity ratio", "setting": "in vitro", "value": 11}, {"measurement": "MIC90", "setting": "[1]", "value": "> 10", "unit": "µM"}, {"measurement": "MIC90", "setting": "Mycobacterium avium", "value": 9.82, "unit": "µM"}, {"measurement": "MIC90", "setting": "[2]", "value": 8.2, "unit": "µM"}, {"measurement": "MIC90", "setting": "Escherichia coli", "value": "> 10", "unit": "µM"}, {"measurement": "MIC90", "setting": "[3]", "value": 8.54, "unit": "µM"}, {"measurement": "MIC90", "setting": "[4]", "value": "> 10", "unit": "µM"}, {"measurement": "MIC90", "setting": "Staphylococcus aureus", "value": "> 10", "unit": "µM"}, {"measurement": "MIC90", "setting": "Mycobacterium marinum", "value": "> 10", "unit": "µM"}, {"measurement": "MIC90", "setting": "Mycobacteroides chelonae", "value": "> 10", "unit": "µM"}, {"measurement": "MIC90", "setting": "Mycobacterium kansasii", "value": 9.21, "unit": "µM"}]}, {"molecule": "CSc1ccc(C(=O)/C=C/c2ccc([N+](=O)[O-])o2)cc1", "values": [{"measurement": "MIC90", "setting": "Candida albicans", "value": "> 10", "unit": "µM"}, {"measurement": "selectivity ratio", "setting": "in vitro", "value": 61}, {"measurement": "MIC90", "setting": "[1]", "value": 4.81, "unit": "µM"}, {"measurement": "MIC90", "setting": "Mycobacterium avium", "value": 1.39, "unit": "µM"}, {"measurement": "MIC90", "setting": "[2]", "value": 5.07, "unit": "µM"}, {"measurement": "MIC90", "setting": "Escherichia coli", "value": "> 10", "unit": "µM"}, {"measurement": "MIC90", "setting": "[3]", "value": 0.66, "unit": "µM"}, {"measurement": "MIC90", "setting": "[4]", "value": "> 10", "unit": "µM"}, {"measurement": "MIC90", "setting": "Staphylococcus aureus", "value": 0.58, "unit": "µM"}, {"measurement": "MIC90", "setting": "Mycobacterium marinum", "value": "> 10", "unit": "µM"}, {"measurement": "MIC90", "setting": "Mycobacteroides chelonae", "value": 4.66, "unit": "µM"}, {"measurement": "MIC90", "setting": "Mycobacterium kansasii", "value": 0.3, "unit": "µM"}]}, {"molecule": "Cc1cccc(C(=O)/C=C/c2ccc([N+](=O)[O-])o2)c1", "values": [{"measurement": "MIC90", "setting": "Candida albicans", "value": "> 10", "unit": "µM"}, {"measurement": "selectivity ratio", "setting": "in vitro", "value": 43}, {"measurement": "MIC90", "setting": "[1]", "value": "> 10", "unit": "µM"}, {"measurement": "MIC90", "setting": "Mycobacterium avium", "value": 1.92, "unit": "µM"}, {"measurement": "MIC90", "setting": "[2]", "value": 4.75, "unit": "µM"}, {"measurement": "MIC90", "setting": "Escherichia coli", "value": "> 10", "unit": "µM"}, {"measurement": "MIC90", "setting": "[3]", "value": 1.27, "unit": "µM"}, {"measurement": "MIC90", "setting": "[4]", "value": "> 10", "unit": "µM"}, {"measurement": "MIC90", "setting": "Staphylococcus aureus", "value": 2.23, "unit": "µM"}, {"measurement": "MIC90", "setting": "Mycobacterium marinum", "value": 2.39, "unit": "µM"}, {"measurement": "MIC90", "setting": "Mycobacteroides chelonae", "value": "> 10", "unit": "µM"}, {"measurement": "MIC90", "setting": "Mycobacterium kansasii", "value": 0.49, "unit": "µM"}]}, {"molecule": "CC(C)(C)c1ccc(C(=O)/C=C/c2ccc([N+](=O)[O-])s2)cc1", "values": [{"measurement": "MIC90", "setting": "Candida albicans", "value": "> 10", "unit": "µM"}, {"measurement": "selectivity ratio", "setting": "in vitro", "value": 454}, {"measurement": "MIC90", "setting": "[1]", "value": "> 10", "unit": "µM"}, {"measurement": "MIC90", "setting": "Mycobacterium avium", "value": 1.08, "unit": "µM"}, {"measurement": "MIC90", "setting": "[2]", "value": 4.18, "unit": "µM"}, {"measurement": "MIC90", "setting": "Escherichia coli", "value": "> 10", "unit": "µM"}, {"measurement": "MIC90", "setting": "[3]", "value": 0.22, "unit": "µM"}, {"measurement": "MIC90", "setting": "[4]", "value": "> 10", "unit": "µM"}, {"measurement": "MIC90", "setting": "Staphylococcus aureus", "value": "> 10", "unit": "µM"}, {"measurement": "MIC90", "setting": "Mycobacterium marinum", "value": "> 10", "unit": "µM"}, {"measurement": "MIC90", "setting": "Mycobacteroides chelonae", "value": "> 10", "unit": "µM"}, {"measurement": "MIC90", "setting": "Mycobacterium kansasii", "value": 0.92, "unit": "µM"}]}, {"molecule": "O=C(/C=C/c1ccc([N+](=O)[O-])s1)c1ccc(-n2ccnc2)cc1", "values": [{"measurement": "MIC90", "setting": "Candida albicans", "value": "> 10", "unit": "µM"}, {"measurement": "selectivity ratio", "setting": "in vitro", "value": 225}, {"measurement": "MIC90", "setting": "[1]", "value": 4.39, "unit": "µM"}, {"measurement": "MIC90", "setting": "Mycobacterium avium", "value": 2.1, "unit": "µM"}, {"measurement": "MIC90", "setting": "[2]", "value": 1.73, "unit": "µM"}, {"measurement": "MIC90", "setting": "Escherichia coli", "value": "> 10", "unit": "µM"}, {"measurement": "MIC90", "setting": "[3]", "value": 0.19, "unit": "µM"}, {"measurement": "MIC90", "setting": "[4]", "value": 4.7, "unit": "µM"}, {"measurement": "MIC90", "setting": "Staphylococcus aureus", "value": 0.28, "unit": "µM"}, {"measurement": "MIC90", "setting": "Mycobacterium marinum", "value": "> 10", "unit": "µM"}, {"measurement": "MIC90", "setting": "Mycobacteroides chelonae", "value": 1.63, "unit": "µM"}, {"measurement": "MIC90", "setting": "Mycobacterium kansasii", "value": 0.56, "unit": "µM"}]}, {"molecule": "O=C(/C=C/c1ccc([N+](=O)[O-])o1)c1ccc(I)cc1", "values": [{"measurement": "MIC90", "setting": "Candida albicans", "value": "> 10", "unit": "µM"}, {"measurement": "selectivity ratio", "setting": "in vitro", "value": 166}, {"measurement": "MIC90", "setting": "[1]", "value": 4.62, "unit": "µM"}, {"measurement": "MIC90", "setting": "Mycobacterium avium", "value": 2.38, "unit": "µM"}, {"measurement": "MIC90", "setting": "[2]", "value": 4.12, "unit": "µM"}, {"measurement": "MIC90", "setting": "Escherichia coli", "value": "> 10", "unit": "µM"}, {"measurement": "MIC90", "setting": "[3]", "value": 0.6, "unit": "µM"}, {"measurement": "MIC90", "setting": "[4]", "value": "> 10", "unit": "µM"}, {"measurement": "MIC90", "setting": "Staphylococcus aureus", "value": "> 10", "unit": "µM"}, {"measurement": "MIC90", "setting": "Mycobacterium marinum", "value": "> 10", "unit": "µM"}, {"measurement": "MIC90", "setting": "Mycobacteroides chelonae", "value": "> 10", "unit": "µM"}, {"measurement": "MIC90", "setting": "Mycobacterium kansasii", "value": 0.59, "unit": "µM"}]}]}
